This note sets out measurements from patent EP0500953B1, “ANTINEOPLASTIC EFFECT POTENTIATOR AND ANTINEOPLASTIC AGENT” (TAIHO PHARMACEUTICAL COMPANY LIMITED, priority 1990, dated 1992).

Data set [1] relates to mouse colon cancer line COLON 26. Briefly: Tumor growth inhibition, subdermally transplanted COLON 26 tumor fragment in mice (Example 1). As to conditions: Dosage 20.0 mg/kg, orally once a day for 9 consecutive days, tumor weight on day 12. Format: in vivo. As to the method: (§1) A 2 mm-diameter fragment of mouse colon cancer line COLON 26 was subdermally transplanted at the back of male CDF1 mice. Beginning 24 hours after transplantation of the tumor fragment, a solution or suspension of tegafur-uracil combination drug, 5-fluorouracil and calcium folinate, the amounts of which are indicated below in Table 1, in 0.5% sodium calboxymethylcellulose (CMC) solution was administered orally once a day for 9 consecutive days. On day 12 after transplantation of the tumor fragment, the tumor was enucleated and weighed. From the ratio of the mean tumor weight in each treatment group to that in the control group, the tumor growth inhibition rate was calculated. On the other hand, the body weight of mice on the day of tumor fragment transplantation was subtracted from the body weight of mice exclusive of tumors on day 12 after transplantation and the difference was used as the index of drug-induced systemic toxicity. Furthermore, the stools passed by mice in each treatment group were examined daily and, in accordance with the method described in Japanese Journal of Cancer Research Vol. 81, 188-195 (1990), the stool property was rated on the following scale: -: normal stool (hard pellets with little moisture), ±: loose stool (normal form, moist and soft), +: loose stool (undefinable form, very moist and soft), ++: diarrheal stool (formless, watery).

Data set [2] is described as follows: Stool property rating (digestive organ toxicity), COLON 26-bearing mice (Example 1). Format: in vivo, male CDF1 mice. Details: key: -: normal stool (hard pellets with little moisture); ±: loose stool (normal form, moist and soft); +: loose stool (undefinable form, very moist and soft); ++: diarrheal stool (formless, watery). The note with it: Dosage 20.0 mg/kg, orally once a day for 9 days. As to the method: as §1

A short description of data set [3]: Body weight change as index of drug-induced systemic toxicity, COLON 26-bearing mice (Example 1). It counts as in vivo, male CDF1 mice. As to conditions: Dosage 20.0 mg/kg, orally once a day for 9 days, day 12 vs day of transplantation. The procedure:
as §1

With `O=c1[nH]cc(F)c(=O)[nH]1` [5-Fluorouracil, 5-fluorouracil], the results for the “Tumor Growth inhibition rate (%)” value in data set [1] (Folinic acid 0 mg/kg) and in data set [1] (Folinic acid 100 mg/kg) were 43% and 56%, respectively. The Stool property entry in data set [2] (Folinic acid 0 mg/kg) is recorded as “±”; in data set [2] (Folinic acid 100 mg/kg) it was “++”. Moreover, the “Change in body weight (g)” value is “+1.7 g” in data set [3] (Folinic acid 0 mg/kg) and “+0.1 g” in data set [3] (Folinic acid 100 mg/kg).
